Source: patent publication US11716992B2, “5A5B6C tricyclic spirolactone derivative, preparation method therefor and use thereof” (NANKAI UNIVERSITY, priority 2017, dated 2023)

tested on: Alternaria solani; assay: Fungicidal activity, fungicide growth rate method, AS; assay type: cell-based; settings: Alternaria solani, 50 μg/mL; read-out: fungicidal activity (growth inhibition rate), AS

Compound | inhibition at 50 µg/mL [%]
C=CC[C@@H]1C[C@]2(O)CC(=O)O[C@@]23CC=CC[C@H]13 [Zyj06-186] | 7
CO[C@@H]1C[C@]2(O)CC(=O)O[C@@]23CC=CC[C@H]13 [Zyj06-189] | 0
C=CC[C@@H]1C[C@]2(O)CC(=O)O[C@@]23C[C@H]2O[C@H]2C[C@H]13 [Zyj07-13] | 10

tested on: Rhizoctonia cerealis; assay: Fungicidal activity, fungicide growth rate method, RC; assay type: cell-based; settings: Ceratobasidium cereale, 50 μg/mL; read-out: fungicidal activity (growth inhibition rate), RC

Compound | inhibition at 50 µg/mL [%]
C=CC[C@@H]1C[C@]2(O)CC(=O)O[C@@]23CC=CC[C@H]13 [Zyj06-186] | 41
CO[C@@H]1C[C@]2(O)CC(=O)O[C@@]23CC=CC[C@H]13 [Zyj06-189] | 29
C=CC[C@@H]1C[C@]2(O)CC(=O)O[C@@]23C[C@H]2O[C@H]2C[C@H]13 [Zyj07-13] | 43

tested on: Physalospora piricola; assay: Fungicidal activity, fungicide growth rate method, PP; assay type: cell-based; settings: 50 μg/mL; read-out: fungicidal activity (growth inhibition rate), PP

Compound | inhibition at 50 µg/mL [%]
C=CC[C@@H]1C[C@]2(O)CC(=O)O[C@@]23CC=CC[C@H]13 [Zyj06-186] | 11
CO[C@@H]1C[C@]2(O)CC(=O)O[C@@]23CC=CC[C@H]13 [Zyj06-189] | > 50
C=CC[C@@H]1C[C@]2(O)CC(=O)O[C@@]23C[C@H]2O[C@H]2C[C@H]13 [Zyj07-13] | 30

tested on: Phytophthora infestans (Mont.) de Bary; assay: microbe, parasite or virus in culture; assay type: cell-based; settings: Phytophthora infestans, read-out: fungicidal activity (growth inhibition rate), PI, 50 μg/mL

Compound | inhibition at 50 µg/mL [%]
C=CC[C@@H]1C[C@]2(O)CC(=O)O[C@@]23CC=CC[C@H]13 [Zyj06-186] | 4
CO[C@@H]1C[C@]2(O)CC(=O)O[C@@]23CC=CC[C@H]13 [Zyj06-189] | 23
C=CC[C@@H]1C[C@]2(O)CC(=O)O[C@@]23C[C@H]2O[C@H]2C[C@H]13 [Zyj07-13] | 0

tested on: Apis mellifera ligustica Spin; assay: not given; settings: dosage 9.77 μg a.i./bee

Compound | Death rate after 48 h (%)
CO[C@@H]1C[C@]2(O)CC(=O)O[C@@]23CC=CC[C@H]13 [Zyj06-189] | 0

same assay, conditions: dosage 9.77 μg a.i./bee; per replicate of 10 bees

Compound | Death number after 24 h | Death number after 48 h
CO[C@@H]1C[C@]2(O)CC(=O)O[C@@]23CC=CC[C@H]13 [Zyj06-189] | 0 | 0

same assay, conditions: dosage 16.4 μg a.i./bee

Compound | Death rate after 48 h (%)
CO[C@@H]1C[C@]2(O)CC(=O)O[C@@]23CC=CC[C@H]13 [Zyj06-189] | 0

same assay, conditions: dosage 16.4 μg a.i./bee; per replicate of 10 bees

Compound | Death number after 24 h | Death number after 48 h
CO[C@@H]1C[C@]2(O)CC(=O)O[C@@]23CC=CC[C@H]13 [Zyj06-189] | 0 | 0

tested on: Caenorhabditis elegans; assay: Insecticidal activity against Caenorhabditis elegans; assay type: in vivo; settings: Caenorhabditis elegans, 100 μg/mL; read-out: insecticidal activity, Caenorhabditis elegans

Compound | pest or weed control at 100 µg/mL [%]
C=CC[C@@H]1C[C@]2(O)CC(=O)O[C@@]23CC=CC[C@H]13 [Zyj06-186] | 15
CO[C@@H]1C[C@]2(O)CC(=O)O[C@@]23CC=CC[C@H]13 [Zyj06-189] | 8
C=CC[C@@H]1C[C@]2(O)CC(=O)O[C@@]23C[C@H]2O[C@H]2C[C@H]13 [Zyj07-13] | 20

tested on: Sclerotinia sclerotiorum; assay: Fungicidal activity, fungicide growth rate method, SS; assay type: cell-based; settings: Sclerotinia sclerotiorum, 50 μg/mL

Compound | inhibition at 50 µg/mL [%]
C=CC[C@@H]1C[C@]2(O)CC(=O)O[C@@]23CC=CC[C@H]13 [Zyj06-186] | > 50
CO[C@@H]1C[C@]2(O)CC(=O)O[C@@]23CC=CC[C@H]13 [Zyj06-189] | 0

tested on: wheat Gibberella zeae; assay: microbe, parasite or virus in culture; assay type: cell-based; settings: Fusarium graminearum, read-out: fungicidal activity (growth inhibition rate), GZ, 50 μg/mL

Compound | inhibition at 50 µg/mL [%]
C=CC[C@@H]1C[C@]2(O)CC(=O)O[C@@]23CC=CC[C@H]13 [Zyj06-186] | 21
CO[C@@H]1C[C@]2(O)CC(=O)O[C@@]23CC=CC[C@H]13 [Zyj06-189] | 13
C=CC[C@@H]1C[C@]2(O)CC(=O)O[C@@]23C[C@H]2O[C@H]2C[C@H]13 [Zyj07-13] | 14

tested on: Botrytis cinerea; assay: Fungicidal activity, fungicide growth rate method, BC; assay type: cell-based; settings: Botrytis cinerea, 50 μg/mL; read-out: fungicidal activity (growth inhibition rate), BC

Compound | inhibition at 50 µg/mL [%]
C=CC[C@@H]1C[C@]2(O)CC(=O)O[C@@]23CC=CC[C@H]13 [Zyj06-186] | 49
CO[C@@H]1C[C@]2(O)CC(=O)O[C@@]23CC=CC[C@H]13 [Zyj06-189] | > 50
C=CC[C@@H]1C[C@]2(O)CC(=O)O[C@@]23C[C@H]2O[C@H]2C[C@H]13 [Zyj07-13] | > 50

tested on: Pellicularia sasakii; assay: Fungicidal activity, fungicide growth rate method, PS; assay type: cell-based; settings: 50 μg/mL; read-out: fungicidal activity (growth inhibition rate), PS

Compound | inhibition at 50 µg/mL [%]
C=CC[C@@H]1C[C@]2(O)CC(=O)O[C@@]23CC=CC[C@H]13 [Zyj06-186] | 6
CO[C@@H]1C[C@]2(O)CC(=O)O[C@@]23CC=CC[C@H]13 [Zyj06-189] | 23
C=CC[C@@H]1C[C@]2(O)CC(=O)O[C@@]23C[C@H]2O[C@H]2C[C@H]13 [Zyj07-13] | 6

tested on: Cercospora arachidicola; assay: Fungicidal activity, fungicide growth rate method, CA; assay type: cell-based; settings: Mycosphaerella arachidis, 50 μg/mL; read-out: fungicidal activity (growth inhibition rate), CA

Compound | inhibition at 50 µg/mL [%]
C=CC[C@@H]1C[C@]2(O)CC(=O)O[C@@]23CC=CC[C@H]13 [Zyj06-186] | 46
CO[C@@H]1C[C@]2(O)CC(=O)O[C@@]23CC=CC[C@H]13 [Zyj06-189] | 24
C=CC[C@@H]1C[C@]2(O)CC(=O)O[C@@]23C[C@H]2O[C@H]2C[C@H]13 [Zyj07-13] | 8

tested on: Mythimna separate (Walker); assay: Insecticidal activity against Mythimna separate (Walker); assay type: in vivo; settings: Mythimna, 100 μg/mL; read-out: insecticidal activity, Mythimna separate (Walker)

Compound | pest or weed control at 100 µg/mL [%]
C=CC[C@@H]1C[C@]2(O)CC(=O)O[C@@]23CC=CC[C@H]13 [Zyj06-186] | 0
CO[C@@H]1C[C@]2(O)CC(=O)O[C@@]23CC=CC[C@H]13 [Zyj06-189] | 0

tested on: Ostrinia furnacalis; assay: Insecticidal activity against Ostrinia furnacalis; assay type: in vivo; settings: Ostrinia furnacalis; 100 μg/mL; read-out: insecticidal activity, Ostrinia furnacalis

Compound | pest or weed control at 100 µg/mL [%]
C=CC[C@@H]1C[C@]2(O)CC(=O)O[C@@]23CC=CC[C@H]13 [Zyj06-186] | 0
CO[C@@H]1C[C@]2(O)CC(=O)O[C@@]23CC=CC[C@H]13 [Zyj06-189] | 0

tested on: Tobacco Mosaic Virus; assay: Anti-TMV inactivation activity on tobacco plants; assay type: in vivo; settings: compound mixed with TMV solution 30 minutes, lesions checked three days later

Compound | TMV inactivation (anti-TMV activity) [%]
C=CC[C@@H]1C[C@]2(O)CC(=O)O[C@@]23C[C@H]2O[C@H]2C[C@H]13 [Zyj07-13] | 11

tested on: Helicoverpa armigera (Hübner); assay: Insecticidal activity against Helicoverpa armigera (Hübner); assay type: in vivo; settings: Helicoverpa armigera; 100 μg/mL; read-out: insecticidal activity, Helicoverpa armigera (Hübner)

Compound | pest or weed control at 100 µg/mL [%]
C=CC[C@@H]1C[C@]2(O)CC(=O)O[C@@]23CC=CC[C@H]13 [Zyj06-186] | 0
CO[C@@H]1C[C@]2(O)CC(=O)O[C@@]23CC=CC[C@H]13 [Zyj06-189] | 0
